In series [1] the target is T1, Choline O-acetyltransferase (Rattus norvegicus) (UniProt P32738).
T1 sequence (whole entry): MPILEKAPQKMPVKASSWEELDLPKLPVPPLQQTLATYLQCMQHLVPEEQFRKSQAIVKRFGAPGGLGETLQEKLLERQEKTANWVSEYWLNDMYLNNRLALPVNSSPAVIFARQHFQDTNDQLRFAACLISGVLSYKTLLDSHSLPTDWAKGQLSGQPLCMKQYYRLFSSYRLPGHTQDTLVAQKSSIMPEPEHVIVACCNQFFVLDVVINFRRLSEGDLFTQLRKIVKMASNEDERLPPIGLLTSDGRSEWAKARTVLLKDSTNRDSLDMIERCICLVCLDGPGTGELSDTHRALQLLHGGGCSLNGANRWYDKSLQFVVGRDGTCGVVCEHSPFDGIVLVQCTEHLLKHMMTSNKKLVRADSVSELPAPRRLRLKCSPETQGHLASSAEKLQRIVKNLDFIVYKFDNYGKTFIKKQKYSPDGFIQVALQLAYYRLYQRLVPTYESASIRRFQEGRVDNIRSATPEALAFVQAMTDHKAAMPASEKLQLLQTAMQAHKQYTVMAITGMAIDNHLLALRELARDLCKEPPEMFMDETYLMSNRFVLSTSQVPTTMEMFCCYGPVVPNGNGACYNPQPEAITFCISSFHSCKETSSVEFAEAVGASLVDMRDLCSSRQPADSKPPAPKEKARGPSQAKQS
The series can be described thus: Rate of acetylation of 13.0+/-1.1 umol compound by 1 g of choline acetyltransferase (ChAc) by incubating for 10 minutes at 37 degrees Centigrade. The arrangement: reference not given here.

Substrate in series [2]: C[N+]1(C)CCOC(O)(c2ccc(-c3ccc(C4(O)C[N+](C)(C)CCO4)cc3)cc2)C1
The series can be described thus: (§1) Apparent Michaelis-Menten Constant (KM) for the acetylation of compound was calculated from Linewear-Burke plots by incubating for 10 minutes at 37 degrees Centigrade.

Substrate in series [3]: C[N+](C)(C)CCO
The series is described as §1.

Substrate in series [4]: C[N+]1(C)CCOC(O)(c2ccc(CCCc3ccc(C4(O)C[N+](C)(C)CCO4)cc3)cc2)C1
The description is as §1.

In turn, `C[N+]1(C)CCOC(O)(c2ccc(CCCCc3ccc(C4(O)C[N+](C)(C)CCO4)cc3)cc2)C1` (centres undefined) gave an Acetylation in series [1] of 5%.
On the same count and under the same terms, the result for `C[N+]1(C)CCOC(O)(c2ccc(CCCc3ccc(C4(O)C[N+](C)(C)CCO4)cc3)cc2)C1` (centres undefined) reads 28%; that for `C[N+](C)(C)CCO`, 100%.
The same measure, in the same setting: the result for `C[N+]1(C)CCOC(O)(c2ccc(Cc3ccc(C4(O)C[N+](C)(C)CCO4)cc3)cc2)C1` (centres undefined) reads 4%.
As for `C[N+]1(C)CCOC(O)(c2ccc(CCc3ccc(C4(O)C[N+](C)(C)CCO4)cc3)cc2)C1` (centres undefined), the Acetylation in series [1] was found to be 3%.
The molecule `C[N+]1(C)CCOC(O)(c2ccc(-c3ccc(C4(O)C[N+](C)(C)CCO4)cc3)cc2)C1` (centres undefined) displayed an Acetylation in series [1] of 28%.

B1: Choline O-acetyltransferase (Rattus norvegicus), P32738 (protein)
chain: T1 sequence (whole entry)
Usually Km stands for the substrate concentration at which the rate is half of its maximum. Regarding B1, the results for the Km in series [2], in series [3] and in series [4] were 1210 µM, 290 µM and 1270 µM, respectively.

Source of the values: ChEMBL document CHEMBL1122667, “Acetylation of some novel hemicholinium compounds by soluble choline acetyltransferase: structure-activity relationships” (J Med Chem, 1984).
